Source: PMC7452424, “Discovery and characterisation of circular bacteriocin plantacyclin B21AG from Lactiplantibacillus plantarum B21” (Heliyon, 2020)

Type: physicochemical
Method: The L. plantarum B21 bacteriocin was purified from the CFS by a three-step protocol process consisting of concentration, n-butanol extraction and cation exchange chromatography by Fast Protein Liquid Chromatography (FPLC). All purification steps were carried out at room temperature. L. plantarum B21 was used as an inoculum 2% (v/v) into 165 mL of MRS broth and incubated at 30 °C for 24 h without shaking. The CFS was prepared as previously described. The CFS was concentrated to 70 mL through a 10 kDa polyethersulfone membrane discs (Generon, UK) using an Amicon UF cell (Model 8200, Millipore, USA). The concentrated CFS was subjected to n-butanol extraction according to Abo-Amer with a few modifications. The concentrated L. plantarum B21 CFS was extracted twice in 1:1 volume of water saturated n-butanol and centrifuged at 10,000 × g for 10 min. The n-butanol fraction containing the bacteriocin was freeze dried (FDU-8612, Operon Co. Ltd, Korea) to remove the solvent. The dried n-butanol fraction was redissolved in 20 mM sodium phosphate buffer, pH 6.0. Both the n-butanol and aqueous fractions were examined for antimicrobial activity. […] The concentration of the bacteriocin was measured after each step of protein purification using Pierce™ BCA Protein Assay Kit (Thermo Fisher Scientific, USA) according to manufacturer's instruction.

cyclo(AAAGALGGTAAIVWIARQFGVHLTTKLTQKALDLLSSGASLGTVAAVILGVTLPGWAV) [plantacyclin B21AG]
Solubility in butanol: remarkable solubility
